Measured values published in patent US7297353B2, “Use of anemonin for treating aseptic inflammations” (priority 2000, dated 2007).
“Also recorded” adds a separate entry of the source.

Tests used:
[1] = test system: staphylococcus, streptococcus, Bacillus diphtheriae, Mycobacterium tuberculosis, and E. coli; details: cited from earlier work
IL-10 = experiment: Cytokine production from splenocytes, Sac stimulation, IL-10 (ELISA); format: cell-based, murine; details: 24 h
Procedure: For splenocyte cytokine production assay, 5×10^6 cells per well were inoculated into a 24-well tissue culture plate with ConA (5 mg/L) or Sac (1:10000) stimulation. Different concentrations of Anemonin were added in a final volume of 2 ml. Cells were incubated at 37° C., 5% CO2 for 24 h and supernatants were harvested, IFN-γ, IL-10, IL12 (p40) and IL-2 in supernatants were measured by the sandwich enzyme-linked immunosorbent assay (ELISA) as specified by the manufacturer (BD Bioscience pharmingen, US). Concentrations of the cytokine productions were calculated based on standard curves obtained from serial dilutions of murine cytokines (r IFN-γ, rIL-10, rIL12, rIL-2). As shown in Tables C-3 and C-4, high-dose Anemonin (1-100 μg/ml) inhibited all kinds of cytokine release induced by ConA or Sac.

[2] = test system: lymphocytes from the whole spleen of ICR mice; experiment: Effect on survival rate of lymphocytes (MTT); format: cell-based; details: for MTT Average of OD values: 48-hour culture
Procedure: 5.1.1. Mice were sacrificed by removing spondyle, spleen was cut off and then ground to obtain single cell suspension. After erythrocytes were got rid of the remained cells were diluted to […] with RPMI-1640 culture solution containing 10% fetal bovine serum. In addition, all these performances must be sterile.
5.1.2. 200 μl solution in total volume (including 100 μl the cell suspension, 50 μl sample and 50 μl culture solution containing 10% fetal bovine serum) was dispensed on 96-well plate. 100 μl the cell suspension and 100 μl culture solution (200 μl in total volume) were added as negative control.
5.1.3. The cell was cultured at 37° C. and under 5% CO2 in incubator for 48 hours, and added MTT to the plate at […] 6 to 7 hours before the end of culture.
5.1.4. 100 μl of supernatant was sucked out when the culture was ended, and then lytic solution was added at 100 μl/well. The plates were kept in incubator for 6 to 7 hours. The survival rate was calculated according to the OD value (at 570 nm) measured by microplate reader.
Effect of different concentrations of Anemonin on survival rate of lymphocytes were determined, said lymphocytes were from the whole spleen of ICR mice after 48-hour culture.

In the case of O=C1C=CC2(CCC23C=CC(=O)O3)O1 (stereo not drawn) [Anemonin, anemonin], the inhibitory against bacteria [1] is listed as “inhibitory”, the “IL-10” value (IL-10; 0.001 μg/ml) is listed as 1242 ± 46 pg/mL and the “IL-10” value (IL-10; 0.01 μg/ml) is listed as 1235 ± 19 pg/mL. The “IL-10” value (IL-10; 0.1 μg/ml) was 1229 ± 9 pg/mL, the “IL-10” value (IL-10; 1 μg/ml) was 749 ± 64 pg/mL and the “IL-10” value (IL-10; 10 μg/ml) was 249 ± 0 pg/mL. For the same compound, the “IL-10” value (IL-10; 100 μg/ml) was 274 ± 18 pg/mL, the “MTT Average of OD values” ([2]; 0.001 μg/ml, Table B-2) was 0.087 and the “Decrease of survival rate of lymphocytes Yes/No” value (“Decrease … of lymphocytes Yes/No” for short) ([2]; 0.001 μg/ml, Table B-2) was “Yes”. For the same compound, the “MTT Average of OD values” ([2]; 0.01 μg/ml, Table B-2) was 0.068, the “Decrease … of lymphocytes Yes/No” value ([2]; 0.01 μg/ml, Table B-2) was “Yes” and the “MTT Average of OD values” ([2]; 0.1 μg/ml, Table B-2) was 0.061. For the same compound, the “Decrease … of lymphocytes Yes/No” value ([2]; 0.1 μg/ml, Table B-2) was “Yes”, the “MTT Average of OD values” ([2]; 1 μg/ml, Table B-1) was 0.052 and the “MTT Average of OD values” ([2]; 1 μg/ml, Table B-2) was 0.002. For the same compound, the “Decrease … of lymphocytes Yes/No” value ([2]; 1 μg/ml, Table B-1) was “Yes”, the “Decrease … of lymphocytes Yes/No” value ([2]; 1 μg/ml, Table B-2) was “Yes” and the “MTT Average of OD values” ([2]; 10 μg/ml, Table B-1) was 0.002. For the same compound, the “MTT Average of OD values” ([2]; 10 μg/ml, Table B-2) was 0.008, the “Decrease … of lymphocytes Yes/No” value ([2]; 10 μg/ml, Table B-1) was “Yes” and the “Decrease … of lymphocytes Yes/No” value ([2]; 10 μg/ml, Table B-2) was “Yes”. For the same compound, the “MTT Average of OD values” ([2]; 100 μg/ml, Table B-1) was 0.163, the “MTT Average of OD values” ([2]; 100 μg/ml, Table B-2) was 0.145 and the “inhibition in survival rate of the lymphocytes” value ([2]; final concentration range from 0.001 μg/ml to 10 μg/ml) was “obvious inhibition; also recorded: obvious effect”.
